Data taken from US10844077B2, “Thiazolyl-containing compounds for treating proliferative diseases” (Dana-Farber Cancer Institute, Inc., priority 2014, dated 2020).
Like-named read-outs stand apart in the source and are kept apart here.

How the values were obtained:
Type in all cases: binding
broad panel of kinases [1] = molecular target: broad panel of kinases (Homo sapiens, UniProt P41240); conditions: CSK; 1 μM
broad panel of kinases [2] = molecular target: broad panel of kinases (Homo sapiens, UniProt P51817); conditions: PRKX; 1 μM
broad panel of kinases [3] = molecular target: broad panel of kinases (Homo sapiens, UniProt P42685); conditions: FRK; 1 μM
broad panel of kinases [4] = molecular target: broad panel of kinases (Homo sapiens, UniProt Q32MK0); conditions: MLCK; 1 μM
broad panel of kinases [5] = molecular target: broad panel of kinases (Homo sapiens, UniProt O15197); conditions: EPHB6; 1 μM
Chain of broad panel of kinases (Homo sapiens, UniProt O15197) (O15197 32-1021 limits assumed): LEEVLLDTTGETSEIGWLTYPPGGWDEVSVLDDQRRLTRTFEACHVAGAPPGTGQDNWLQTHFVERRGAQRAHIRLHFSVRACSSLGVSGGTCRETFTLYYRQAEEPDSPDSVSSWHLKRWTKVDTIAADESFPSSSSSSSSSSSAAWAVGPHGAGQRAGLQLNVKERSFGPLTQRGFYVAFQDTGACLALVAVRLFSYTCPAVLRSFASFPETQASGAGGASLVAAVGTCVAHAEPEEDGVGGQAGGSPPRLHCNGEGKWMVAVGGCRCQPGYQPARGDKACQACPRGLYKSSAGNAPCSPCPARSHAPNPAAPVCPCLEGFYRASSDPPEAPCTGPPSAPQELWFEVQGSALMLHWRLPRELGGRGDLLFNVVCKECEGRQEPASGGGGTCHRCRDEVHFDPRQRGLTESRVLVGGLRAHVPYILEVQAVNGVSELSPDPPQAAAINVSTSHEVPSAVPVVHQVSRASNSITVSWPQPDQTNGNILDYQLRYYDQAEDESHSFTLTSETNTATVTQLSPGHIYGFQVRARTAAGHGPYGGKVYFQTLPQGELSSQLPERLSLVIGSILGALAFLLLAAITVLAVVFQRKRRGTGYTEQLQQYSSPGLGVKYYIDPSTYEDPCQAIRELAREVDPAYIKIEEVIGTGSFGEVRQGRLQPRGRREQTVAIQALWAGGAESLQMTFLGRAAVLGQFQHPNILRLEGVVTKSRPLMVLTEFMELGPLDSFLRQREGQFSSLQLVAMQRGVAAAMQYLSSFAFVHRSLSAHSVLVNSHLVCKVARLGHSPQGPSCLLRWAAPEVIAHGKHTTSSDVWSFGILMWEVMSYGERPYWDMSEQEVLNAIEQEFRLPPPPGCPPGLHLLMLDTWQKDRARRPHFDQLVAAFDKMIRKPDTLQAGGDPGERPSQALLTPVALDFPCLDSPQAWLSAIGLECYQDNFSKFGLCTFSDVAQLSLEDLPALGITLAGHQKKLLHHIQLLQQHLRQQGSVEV

broad panel of kinases [6] = molecular target: broad panel of kinases (Homo sapiens, UniProt Q13153); conditions: PAK1; 1 μM
Chain of broad panel of kinases (Homo sapiens, UniProt Q13153) (Q13153 2-545 limits assumed): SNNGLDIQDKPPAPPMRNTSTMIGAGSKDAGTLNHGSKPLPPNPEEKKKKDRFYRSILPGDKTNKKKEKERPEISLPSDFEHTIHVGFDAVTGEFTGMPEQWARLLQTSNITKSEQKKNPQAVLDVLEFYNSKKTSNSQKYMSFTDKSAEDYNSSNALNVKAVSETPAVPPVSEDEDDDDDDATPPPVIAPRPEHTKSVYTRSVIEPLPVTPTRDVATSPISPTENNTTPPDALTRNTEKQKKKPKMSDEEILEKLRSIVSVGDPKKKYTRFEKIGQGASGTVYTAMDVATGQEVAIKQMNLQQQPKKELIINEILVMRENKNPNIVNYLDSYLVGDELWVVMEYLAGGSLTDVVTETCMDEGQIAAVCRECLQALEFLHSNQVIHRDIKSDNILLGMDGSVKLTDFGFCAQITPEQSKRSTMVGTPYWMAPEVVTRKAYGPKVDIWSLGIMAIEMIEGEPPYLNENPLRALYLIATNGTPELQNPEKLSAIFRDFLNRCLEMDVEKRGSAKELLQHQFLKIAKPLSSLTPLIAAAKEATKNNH

broad panel of kinases [7] = molecular target: broad panel of kinases (Homo sapiens, UniProt O76039); conditions: CDKL5; 1 μM
broad panel of kinases [8] = molecular target: broad panel of kinases (Homo sapiens, UniProt Q96BR1); conditions: SGK3; 1 μM
broad panel of kinases [9] = molecular target: broad panel of kinases (Homo sapiens, UniProt O43318); conditions: TAK1; 1 μM
broad panel of kinases [10] = molecular target: broad panel of kinases (Homo sapiens, UniProt O75676); conditions: 1 μM
broad panel of kinases [11] = molecular target: broad panel of kinases (Homo sapiens, UniProt Q96SB4); conditions: SRPK1; 1 μM
broad panel of kinases [12] = molecular target: broad panel of kinases (Homo sapiens, UniProt P29597); conditions: 1 μM
broad panel of kinases [13] = molecular target: broad panel of kinases (Homo sapiens, UniProt Q86Y07); conditions: VRK2; 1 μM
broad panel of kinases [14] = molecular target: broad panel of kinases (Homo sapiens, UniProt Q8TD19); conditions: NEK9; 1 μM
broad panel of kinases [15] = molecular target: broad panel of kinases (Homo sapiens, UniProt Q9NYY3); conditions: PLK2; 1 μM
broad panel of kinases [16] = molecular target: broad panel of kinases (Homo sapiens, UniProt P49760); conditions: CLK2; 1 μM
broad panel of kinases [17] = molecular target: broad panel of kinases (Homo sapiens, UniProt Q9UKI8); conditions: TLK1; 1 μM
broad panel of kinases [18] = molecular target: broad panel of kinases (Homo sapiens, UniProt O15111); conditions: IKK-alpha; 1 μM
broad panel of kinases [19] = molecular target: broad panel of kinases (Homo sapiens, UniProt P10721); conditions: 1 μM
Chain of broad panel of kinases (Homo sapiens, UniProt P10721) (P10721 26-976 limits assumed): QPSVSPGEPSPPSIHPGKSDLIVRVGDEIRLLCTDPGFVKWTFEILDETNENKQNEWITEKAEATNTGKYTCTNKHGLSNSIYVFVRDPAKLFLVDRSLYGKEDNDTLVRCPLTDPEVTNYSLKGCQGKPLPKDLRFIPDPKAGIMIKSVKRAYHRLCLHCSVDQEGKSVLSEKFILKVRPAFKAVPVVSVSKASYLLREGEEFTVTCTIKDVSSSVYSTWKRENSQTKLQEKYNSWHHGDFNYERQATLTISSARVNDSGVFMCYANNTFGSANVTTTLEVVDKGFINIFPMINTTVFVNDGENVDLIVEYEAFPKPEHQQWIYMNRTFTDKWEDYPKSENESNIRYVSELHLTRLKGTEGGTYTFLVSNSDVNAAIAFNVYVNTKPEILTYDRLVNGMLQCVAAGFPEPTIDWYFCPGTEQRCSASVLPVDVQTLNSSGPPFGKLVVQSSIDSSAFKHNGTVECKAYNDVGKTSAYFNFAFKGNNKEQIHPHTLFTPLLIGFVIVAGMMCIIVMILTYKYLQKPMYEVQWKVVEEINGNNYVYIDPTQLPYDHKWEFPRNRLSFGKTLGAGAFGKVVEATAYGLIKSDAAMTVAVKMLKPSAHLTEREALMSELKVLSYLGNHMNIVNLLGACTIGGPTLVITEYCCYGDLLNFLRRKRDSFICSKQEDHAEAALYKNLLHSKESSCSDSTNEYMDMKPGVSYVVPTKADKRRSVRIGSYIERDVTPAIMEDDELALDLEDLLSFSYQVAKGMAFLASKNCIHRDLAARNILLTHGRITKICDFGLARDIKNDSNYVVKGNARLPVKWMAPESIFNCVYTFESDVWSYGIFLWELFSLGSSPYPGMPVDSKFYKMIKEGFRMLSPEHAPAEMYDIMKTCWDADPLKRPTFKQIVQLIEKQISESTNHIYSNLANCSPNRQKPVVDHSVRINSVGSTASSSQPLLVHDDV

broad panel of kinases [20] = molecular target: broad panel of kinases (Homo sapiens, UniProt O94806); conditions: PRKD3; 1 μM
broad panel of kinases [21] = molecular target: broad panel of kinases (Homo sapiens, UniProt P42336); conditions: PIK3CA; 1 μM
broad panel of kinases [22] = molecular target: broad panel of kinases (Homo sapiens, UniProt P54764); conditions: EPHA4; 1 μM
Chain of broad panel of kinases (Homo sapiens, UniProt P54764) (P54764 20-986 limits assumed): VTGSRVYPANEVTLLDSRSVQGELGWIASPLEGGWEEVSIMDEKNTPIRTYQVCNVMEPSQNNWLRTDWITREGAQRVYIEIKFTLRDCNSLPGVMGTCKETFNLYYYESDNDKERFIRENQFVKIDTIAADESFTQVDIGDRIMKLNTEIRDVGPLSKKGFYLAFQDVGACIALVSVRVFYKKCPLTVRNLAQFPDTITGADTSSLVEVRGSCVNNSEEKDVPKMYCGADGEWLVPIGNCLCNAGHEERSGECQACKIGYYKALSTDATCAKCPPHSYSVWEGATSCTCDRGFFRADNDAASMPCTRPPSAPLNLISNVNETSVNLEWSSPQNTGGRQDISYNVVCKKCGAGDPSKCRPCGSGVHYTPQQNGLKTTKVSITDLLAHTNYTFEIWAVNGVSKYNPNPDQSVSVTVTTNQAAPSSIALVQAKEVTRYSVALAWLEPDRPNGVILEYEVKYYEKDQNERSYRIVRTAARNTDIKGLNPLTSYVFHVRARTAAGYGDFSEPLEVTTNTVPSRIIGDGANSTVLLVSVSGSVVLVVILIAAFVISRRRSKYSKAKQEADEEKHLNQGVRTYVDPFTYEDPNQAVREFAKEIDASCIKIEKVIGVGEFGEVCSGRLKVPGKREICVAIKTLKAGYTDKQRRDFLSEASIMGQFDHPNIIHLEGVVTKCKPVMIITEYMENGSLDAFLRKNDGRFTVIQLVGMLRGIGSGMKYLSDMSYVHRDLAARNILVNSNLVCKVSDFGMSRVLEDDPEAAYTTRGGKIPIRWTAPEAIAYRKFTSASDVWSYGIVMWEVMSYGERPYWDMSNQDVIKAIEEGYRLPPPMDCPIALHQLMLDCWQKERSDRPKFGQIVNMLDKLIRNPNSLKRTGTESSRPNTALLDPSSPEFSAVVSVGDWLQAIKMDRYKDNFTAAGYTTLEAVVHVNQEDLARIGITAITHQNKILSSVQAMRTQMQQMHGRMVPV

broad panel of kinases [23] = molecular target: broad panel of kinases (Homo sapiens, UniProt Q8IW41)
broad panel of kinases [24] = molecular target: broad panel of kinases (Homo sapiens, UniProt P51617); conditions: IRAK1; 1 μM
broad panel of kinases [25] = molecular target: broad panel of kinases (Homo sapiens, UniProt Q9UEW8); conditions: STK39; 1 μM
broad panel of kinases [26] = molecular target: broad panel of kinases (Homo sapiens, UniProt P51451); conditions: BLK; 1 μM
broad panel of kinases [27] = molecular target: broad panel of kinases (Homo sapiens, UniProt P04626); conditions: ERBB2; 1 μM
Chain of broad panel of kinases (Homo sapiens, UniProt P04626) (P04626 23-1255 limits assumed): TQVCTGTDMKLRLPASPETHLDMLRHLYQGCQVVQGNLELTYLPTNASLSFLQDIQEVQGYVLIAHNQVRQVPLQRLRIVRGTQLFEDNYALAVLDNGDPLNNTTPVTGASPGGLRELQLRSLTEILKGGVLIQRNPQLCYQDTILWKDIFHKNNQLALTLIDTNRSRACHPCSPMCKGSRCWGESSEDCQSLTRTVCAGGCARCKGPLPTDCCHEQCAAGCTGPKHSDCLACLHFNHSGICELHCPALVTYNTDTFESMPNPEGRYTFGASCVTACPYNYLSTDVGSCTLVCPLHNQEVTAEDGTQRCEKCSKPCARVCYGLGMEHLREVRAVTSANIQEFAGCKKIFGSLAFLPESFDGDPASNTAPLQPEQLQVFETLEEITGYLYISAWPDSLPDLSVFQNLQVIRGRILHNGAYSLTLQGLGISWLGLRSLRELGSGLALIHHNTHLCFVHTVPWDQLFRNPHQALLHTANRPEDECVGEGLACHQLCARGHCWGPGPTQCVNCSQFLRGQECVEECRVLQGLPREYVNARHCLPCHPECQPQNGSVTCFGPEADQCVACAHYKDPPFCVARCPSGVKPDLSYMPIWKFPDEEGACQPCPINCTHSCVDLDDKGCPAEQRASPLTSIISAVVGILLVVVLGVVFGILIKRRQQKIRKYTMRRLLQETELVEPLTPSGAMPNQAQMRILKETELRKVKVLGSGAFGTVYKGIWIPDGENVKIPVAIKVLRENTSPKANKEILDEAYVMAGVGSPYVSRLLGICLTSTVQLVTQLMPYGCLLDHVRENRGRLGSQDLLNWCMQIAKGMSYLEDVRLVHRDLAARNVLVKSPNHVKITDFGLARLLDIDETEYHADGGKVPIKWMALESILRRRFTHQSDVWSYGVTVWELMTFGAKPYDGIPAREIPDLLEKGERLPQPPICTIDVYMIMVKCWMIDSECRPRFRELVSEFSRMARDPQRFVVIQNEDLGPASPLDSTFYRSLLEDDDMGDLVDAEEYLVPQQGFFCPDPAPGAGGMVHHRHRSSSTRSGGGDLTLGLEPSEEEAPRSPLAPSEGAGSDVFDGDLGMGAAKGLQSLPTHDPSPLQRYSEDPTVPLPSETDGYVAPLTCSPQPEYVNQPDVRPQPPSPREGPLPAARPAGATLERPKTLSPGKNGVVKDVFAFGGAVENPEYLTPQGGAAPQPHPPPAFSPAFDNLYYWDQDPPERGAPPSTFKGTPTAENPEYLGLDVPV

broad panel of kinases [28] = molecular target: broad panel of kinases (Homo sapiens, UniProt P78362); conditions: SRPK2; 1 μM
broad panel of kinases [29] = molecular target: broad panel of kinases (Homo sapiens, UniProt P15735); conditions: PHKG2; 1 μM
broad panel of kinases [30] = molecular target: broad panel of kinases (Homo sapiens, UniProt P08581, Y1235D); conditions: MET(Y1235D); 1 μM
broad panel of kinases [31] = molecular target: broad panel of kinases (Homo sapiens, UniProt Q02779); conditions: MLK2; 1 μM
broad panel of kinases [32] = molecular target: broad panel of kinases (Homo sapiens, UniProt Q8TBX8); conditions: PIP5K2C; 1 μM
Chain of broad panel of kinases (Homo sapiens, UniProt Q8TBX8) (Q8TBX8 2-421 limits assumed): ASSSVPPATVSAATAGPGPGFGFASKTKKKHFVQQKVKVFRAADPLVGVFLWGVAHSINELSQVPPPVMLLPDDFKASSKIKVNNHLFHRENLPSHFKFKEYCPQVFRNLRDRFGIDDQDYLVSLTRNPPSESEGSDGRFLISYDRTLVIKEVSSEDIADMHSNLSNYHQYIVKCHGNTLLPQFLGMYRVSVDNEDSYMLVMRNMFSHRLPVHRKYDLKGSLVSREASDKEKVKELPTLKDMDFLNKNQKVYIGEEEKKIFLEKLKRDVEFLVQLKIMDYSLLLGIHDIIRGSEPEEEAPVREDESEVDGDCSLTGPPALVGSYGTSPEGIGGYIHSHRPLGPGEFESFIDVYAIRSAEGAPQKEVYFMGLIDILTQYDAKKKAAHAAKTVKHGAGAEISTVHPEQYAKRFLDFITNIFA

broad panel of kinases [33] = molecular target: broad panel of kinases (Homo sapiens, UniProt O15075); conditions: DCAMKL1; 1 μM
broad panel of kinases [34] = molecular target: broad panel of kinases (Homo sapiens, UniProt P42336, E545A); conditions: PIK3CA(E545A); 1 μM
broad panel of kinases [35] = molecular target: broad panel of kinases (Homo sapiens, UniProt P36507); conditions: MEK2; 1 μM
broad panel of kinases [36] = molecular target: broad panel of kinases (Homo sapiens, UniProt P43403); conditions: ZAP70; 1 μM
broad panel of kinases [37] = molecular target: broad panel of kinases (Homo sapiens, UniProt P41743); conditions: PRKCI; 1 μM

| Compound | percent of control binding remaining (lower = stronger binding) (broad panel of kinases [1]) | percent of control binding remaining (lower = stronger binding) (broad panel of kinases [2]) | percent of control binding remaining (lower = stronger binding) (broad panel of kinases [3]) | percent of control binding remaining (lower = stronger binding) (broad panel of kinases [4]) | percent of control binding remaining (lower = stronger binding) (broad panel of kinases [5]) | percent of control binding remaining (lower = stronger binding) (broad panel of kinases [6]) | percent of control binding remaining (lower = stronger binding) (broad panel of kinases [7]) | percent of control binding remaining (lower = stronger binding) (broad panel of kinases [8]) | percent of control binding remaining (lower = stronger binding) (broad panel of kinases [9]) | percent of control binding remaining (lower = stronger binding) (broad panel of kinases [10]; RPS6KA4(Kin.Dom.1-N-terminal)) | percent of control binding remaining (lower = stronger binding) (broad panel of kinases [10]; RPS6KA4(Kin.Dom.2-C-terminal)) | percent of control binding remaining (lower = stronger binding) (broad panel of kinases [11]) | percent of control binding remaining (lower = stronger binding) (broad panel of kinases [12]; TYK2(JH1domain-catalytic)) | percent of control binding remaining (lower = stronger binding) (broad panel of kinases [12]; TYK2(JH2domain-pseudokinase)) | percent of control binding remaining (lower = stronger binding) (broad panel of kinases [13]) | percent of control binding remaining (lower = stronger binding) (broad panel of kinases [14]) | percent of control binding remaining (lower = stronger binding) (broad panel of kinases [15]) | percent of control binding remaining (lower = stronger binding) (broad panel of kinases [16]) | percent of control binding remaining (lower = stronger binding) (broad panel of kinases [17]) | percent of control binding remaining (lower = stronger binding) (broad panel of kinases [18]) | also measured |
| --- | --- | --- | --- | --- | --- | --- | --- | --- | --- | --- | --- | --- | --- | --- | --- | --- | --- | --- | --- | --- | --- |
| C=CC(=O)N1CC[C@H](Nc2nc(CN3CCOCC3)cc(Nc3ncc(C(=O)Nc4c(C)cccc4C)s3)n2)C1 [Example I-2] | 1.6% | 100% | 0.1% | 100% | 7.7% | 100% | 100% | 100% | 95% | 100% | 96% | 91% | 89% | 28% | 94% | 100% | 92% | 100% | 100% | 93% | percent of control binding remaining (lower = stronger binding) (broad panel of kinases [19]; KIT-autoinhibited): 1.8%; percent of control binding remaining (lower = stronger binding) (broad panel of kinases [19]; KIT): 0%; percent of control binding remaining (lower = stronger binding) (broad panel of kinases [20]): 81%; percent of control binding remaining (lower = stronger binding) (broad panel of kinases [21]): 100%; percent of control binding remaining (lower = stronger binding) (broad panel of kinases [22]): 0%; % change compared to control (broad panel of kinases [23]): 100%; percent of control binding remaining (lower = stronger binding) (broad panel of kinases [24]): 84%; percent of control binding remaining (lower = stronger binding) (broad panel of kinases [25]): 92%; percent of control binding remaining (lower = stronger binding) (broad panel of kinases [26]): 0%; percent of control binding remaining (lower = stronger binding) (broad panel of kinases [27]): 7.5%; percent of control binding remaining (lower = stronger binding) (broad panel of kinases [28]): 92%; percent of control binding remaining (lower = stronger binding) (broad panel of kinases [29]): 96%; percent of control binding remaining (lower = stronger binding) (broad panel of kinases [30]): 95%; percent of control binding remaining (lower = stronger binding) (broad panel of kinases [31]): 100%; percent of control binding remaining (lower = stronger binding) (broad panel of kinases [32]): 100%; percent of control binding remaining (lower = stronger binding) (broad panel of kinases [33]): 87%; percent of control binding remaining (lower = stronger binding) (broad panel of kinases [34]): 100%; percent of control binding remaining (lower = stronger binding) (broad panel of kinases [35]): 78%; percent of control binding remaining (lower = stronger binding) (broad panel of kinases [36]): 99%; percent of control binding remaining (lower = stronger binding) (broad panel of kinases [37]): 94% |
| C=CC(=O)N1CC[C@H](Nc2nccc(Nc3ncc(C(=O)Nc4c(C)cccc4C)s3)n2)C1 [Example I-3] | 1.6% | 100% | 0.1% | 100% | 4.6% | 95% | 100% | 100% | 90% | 100% | 100% | 96% | 91% | 26% | 70% | 100% | 76% | 96% | 100% | 100% | percent of control binding remaining (lower = stronger binding) (broad panel of kinases [19]; KIT-autoinhibited): 2.6%; percent of control binding remaining (lower = stronger binding) (broad panel of kinases [19]; KIT): 0%; percent of control binding remaining (lower = stronger binding) (broad panel of kinases [20]): 81%; percent of control binding remaining (lower = stronger binding) (broad panel of kinases [21]): 100%; percent of control binding remaining (lower = stronger binding) (broad panel of kinases [22]): 0%; % change compared to control (broad panel of kinases [23]): 100%; percent of control binding remaining (lower = stronger binding) (broad panel of kinases [24]): 93%; percent of control binding remaining (lower = stronger binding) (broad panel of kinases [25]): 71%; percent of control binding remaining (lower = stronger binding) (broad panel of kinases [26]): 0%; percent of control binding remaining (lower = stronger binding) (broad panel of kinases [27]): 0.8%; percent of control binding remaining (lower = stronger binding) (broad panel of kinases [28]): 64%; percent of control binding remaining (lower = stronger binding) (broad panel of kinases [29]): 94%; percent of control binding remaining (lower = stronger binding) (broad panel of kinases [30]): 92%; percent of control binding remaining (lower = stronger binding) (broad panel of kinases [31]): 95%; percent of control binding remaining (lower = stronger binding) (broad panel of kinases [32]): 100%; percent of control binding remaining (lower = stronger binding) (broad panel of kinases [33]): 84%; percent of control binding remaining (lower = stronger binding) (broad panel of kinases [34]): 100%; percent of control binding remaining (lower = stronger binding) (broad panel of kinases [35]): 100%; percent of control binding remaining (lower = stronger binding) (broad panel of kinases [36]): 100%; percent of control binding remaining (lower = stronger binding) (broad panel of kinases [37]): 90% |
